# Measured values: patent publication US20240316050A1 (OXFORD UNIVERSITY INNOVATION LIMITED, priority 2020, published 2024)
# “Also recorded” adds a separate entry of the source. Where a name gives a salt, the structure may show the parent alone.
# Tests used:
# [1] = Plasma and uterine artery biopterins by HPLC in treated pregnant mice; conditions: for systemic oxidation of BH4 to BH2: Gch1 deficient and control mice, oral supplementation
# Experimental: After centrifugation at 13,200 rpm for 10 min at 4° C., supernatant was removed and ice-cold acid precipitation buffer (1 M phosphoric acid, 2 M trichloroacetic acid, 1 mM dithioerythritol) was added. Following centrifugation at 13,200 rpm for 10 min at 4° C., the supernatant was removed and injected onto the HPLC system.
# [2] = molecular target: T1, endothelial nitric oxide synthase (eNOS) (Homo sapiens, UniProt P29474); experiment: NO synthesis by eNOS (14C arginine to citrulline conversion) in HUVECs; assay type: cell-based; conditions: HUVECs from NT and PE pregnancies; sepiapterin 1 μM
# T1 construct: endogenous in cells; host or cells: primary HUVECs (passages 1-3) from normotensive and pre-eclamptic pregnancies
# Description: Umbilical cords were collected at birth and human umbilical vein endothelial cells (HUVECs) were isolated and stored in liquid nitrogen according to standard operating procedures within a research tissue bank (Oxford Cardiovascular Tissue Bioresource; ethical approval 09/H0606/68, 07/H0606/148 and 11/SC/0230). For the purpose of the current study, HUVECs were identified from normotensive pregnancies and pregnancies complicated by preeclampsia, matched for maternal age and gestation. […] All cell cultures were maintained in humidified 5% CO2 at 37° C.
# NO synthesis by eNOS was assessed by conversion of ^14C L-arginine to citrulline, in the presence and absence of N-monomethyl-L-arginine (1 mM, Sigma), as described previously^9. Briefly, HUVES were incubated for 4 hours at 37° C. in 200 μl Krebs-HEPES buffer containing ^14C L-arginine (2 μl of 50 μCi/mL). Samples were run on a SCX 300 cation exchange HPLC column (Sigma) with online scintillation detection. Background signals were corrected from samples with ^14C L-arginine alone without cells.
# [3] = test system: HUVECs; experiment: Intracellular BH4 and biopterins by HPLC in HUVECs; assay type: cell-based, human
# Description: (§1) Umbilical cords were collected at birth and human umbilical vein endothelial cells (HUVECs) were isolated and stored in liquid nitrogen according to standard operating procedures within a research tissue bank (Oxford Cardiovascular Tissue Bioresource; ethical approval 09/[…]/68, 07/[…]/148 and 11/SC/0230). For the purpose of the current study, HUVECs were identified from normotensive pregnancies and pregnancies complicated by preeclampsia, matched for maternal age and gestation. HUVECs and human uterine microvascular endothelial cells (HutMECs; Cat C-12295, Promocell) were cultured in EBM2 (endothelial basal medium) with bullet kit as recommended (Cat CC-3162, Lonza). All cell cultures were maintained in humidified 5% CO2 at 37° C. Primary HUVEC and HutMEC cells, obtained between passages 1-3 were and passages 4-6, respectively, were used for all experiments. sEnd.1 endothelial cells were grown in Dulbecco's modified Eagle's medium (Invitrogen) supplemented with glutamine (2 mmol/liter), penicillin (100 units/ml), and streptomycin (0.1 mg/ml).
# [4] = test system: HUVECs; experiment: Matrigel endothelial tube formation, HUVECs from NT and PE pregnancies; assay type: cell-based, human; conditions: sepiapterin 1 μM
# Description: Umbilical cords were collected at birth and human umbilical vein endothelial cells (HUVECs) were isolated and stored in liquid nitrogen according to standard operating procedures within a research tissue bank (Oxford Cardiovascular Tissue Bioresource; ethical approval 09/H0606/68, 07/H0606/148 and 11/SC/0230). For the purpose of the current study, HUVECs were identified from normotensive pregnancies and pregnancies complicated by preeclampsia, matched for maternal age and gestation. HUVECs and human uterine microvascular endothelial cells (HutMECs; Cat C-12295, Promocell) were cultured in EBM2 (endothelial basal medium) with bullet kit as recommended (Cat CC-3162, Lonza). All cell cultures were maintained in humidified 5% CO2 at 37° C. […]
# To assess tube formation ability of endothelial cells, a 96-well plate was evenly coated with 50 μl of growth factor-reduced Matrigel (BD Biosciences, UK). […] Images were saved as TIFF files, and tube formation analysed using AngioSys 1.0 (TCS Cell Works, UK). […] The total length of lines was quantified in pixels (then converted to micrometers) and total number of branch points was recorded.
# [5] = test system: sEND.1 mouse endothelial cell line; experiment: Matrigel endothelial tube formation, sEND.1 cells with Gch1 siRNA; assay type: cell-based; conditions: sEND.1 treated with specific Gch1 siRNA; sepiapterin 1 μM
# Experimental: (§2) To assess tube formation ability of endothelial cells, a 96-well plate was evenly coated with 50 μl of growth factor-reduced Matrigel (BD Biosciences, UK). Endothelial cells were plated at a density of 1×10^4 cells per well. The plate was incubated at 37° C. for 16 hours before photomicroscopy. Each sample was replicated in triplicate and the image of each well was taken at ×4 magnification using a Nikon Eclipse TE2000-U microscope (Nikon Ltd, London, UK). Images obtained from Matrigel assay were adjusted for mean brightness using acquisition software to control the bright field illumination of the microscope (Simple PCI version 6.6.0.0; Hamamatsu Corporation, Sewickley, PA). Images were saved as TIFF files, and tube formation analysed using AngioSys 1.0 (TCS Cell Works, UK). Image threshold was adjusted based on the intensity values of the monochrome image and each image then skeletonized to reduce to one pixel wide. […] The total length of lines was quantified in pixels (then converted to micrometers) and total number of branch points was recorded.
# (§3) GCH1-specific, ON-TARGETplus SMARTpool siRNA was purchased from Dharmacon Thermo Scientific. […] The cells were cultured for 72 h, and gene silencing was detected by analysis of GTPCH protein expression by Western blotting using GTPCH-specific antibodies (a gift from S.Gross, Cornell University New York), in cells using standard protocols.
# [6] = test system: sEnd.1 murine endothelial cells; experiment: Intracellular BH4 and biopterins by HPLC in sEnd.1 cells; assay type: cell-based, mouse
# Description: as §1, with “mg/ml). GCH1-specific, ON-TARGETplus SMARTpool siRNA was purchased from Dharmacon Thermo Scientific. […] The cells were cultured for 72 h, and gene silencing was detected by analysis of GTPCH protein expression by Western blotting using GTPCH-specific antibodies (a gift from S.Gross, Cornell University New York), in cells using standard protocols.” for “mg/ml).”
# [7] = test system: human uterine microvascular endothelial cells (HutMECs); experiment: Matrigel endothelial tube formation, HutMECs with GCH1 siRNA; assay type: cell-based; conditions: HutMECs treated with GCH1 siRNA; sepiapterin 1 μM
# Experimental: as §2, §3
# [8] = test system: uterine arteries; experiment: Wire myography of isolated uterine arteries with inhibitors in the bath; design: species or system mouse
# Description: All drugs used were purchased from Sigma Chemical Company.
# [9] = molecular target: T2, endothelial nitric oxide synthase (eNOS) (Mus musculus, UniProt P70313); experiment: eNOS activity (14C arginine to 14C citrulline) in sEnd.1 cells; assay type: cell-based; conditions: 5MTHF 10 μm, 16 h (FIG. 34)
# T2 construct: Conversion of 14C arginine to 14C citrulline was used as a measure of endothelial nitric oxide synthase activity (eNOS); endogenous in cells; host or cells: sEnd.1 murine endothelial cell line
# [10] = test system: people with PKU; conditions: most people with PKU; cited from earlier work
# [11] = test system: sEnd.1 cells; experiment: Superoxide and ROS production by DHE HPLC in sEnd.1 cells; assay type: cell-based, mouse; conditions: folic acid 10 μm, 16 h (FIG. 33)
# Experimental: Measurement of 2-hydroxyethidium formation by HPLC was used to quantify superoxide production, as previously described. Briefly, the cells were washed three times in PBS and incubated in Krebs-Hepes buffer in the presence or absence of I-NAME (100 μm). After 30 min, dihydroethidium (25 μm) was added, and the cells were then incubated for an additional 20 min at 37° C. The cells were then harvested by scraping, centrifuged, and lysed in ice-cold methanol. Hydrochloric acid (100 mm) was added (1:1 v/v) prior to loading into the autosampler for analysis. All of the samples were stored in darkened tubes and protected from light at all times. Separation of ethidium, oxyethidium, and dihydroethidium was performed using a gradient HPLC system (Jasco) with an ODS3 reverse phase column (250 mm, 4.5 mm; Hichrom), and quantified using a fluorescence detector set at 510 nm (excitation) and 595 nm (emission). A linear gradient was applied from Mobile phase A (0.1% TFA (v/v)) to Mobile phase B (0.1% TFA (v/v) in acetonitrile) over 23 min (30% acetonitrile to 50% acetonitrile).
# [12] = test system: women with pre-eclampsia; conditions: folic acid supplementation, clinical trials; cited from earlier work
# [13] = test system: Gch1^fl/flTie2cre mice; experiment: Systolic blood pressure by tail-cuff plethysmography in pregnant mice; conditions: oral 5-MTHF begun at day 10.5 or 16.5
# Experimental: Female Gch1^fl/flTie2cre mice and their Gch1^fl/fl littermates (thereafter referred to as wild-type) were used for all experiments at 10 to 16 weeks.
# Systolic blood pressure and heart rate was determined using a computerized tail-cuff system (Visitech, USA) in conscious mice^6. Experiments were performed between the hours of 8 and 12 am. The animal tails were passed through a cylindrical latex tail-cuff and taped down to reduce movement. Twenty readings were taken per mouse of which the first 5 readings were discarded. The remaining 15 readings were used to calculate the mean systolic blood pressure and heart rate in each mouse.
structure (smiles),measurement,setting,value
"C[C@H](O)[C@H](O)[C@H]1CNc2nc(N)[nH]c(=O)c2N1 [BH4, tetrahydrobiopterin]",systemic oxidation of BH4 to BH2,[1],rapidly oxidised
same,BH4/BH2+B (total biopterins) ratio,"[1]; pregnant mice, E18.5, oral BH4 200 mg/kg/day",reduction
same,plasma BH4 levels,"[1]; pregnant mice, E18.5, oral in chow from 3 days before timed matings, BH4 200 mg/kg/day, 5-MTHF 15 mg/kg/day",increased
C[C@H](O)C(=O)C1=Nc2c(nc(N)[nH]c2=O)NC1 [sepiapterin],eNOS activity,[2],normalized; also recorded: significantly increased
same,BH4 levels,"[3]; HUVECs from hypertensive/pre-eclamptic pregnancies, sepiapterin 1 μM",normalized
same,endothelial cell growth and tubule formation,[4],restored; also recorded: rescued
same,endothelial cell growth and tubule formation,[5],fully restored; also recorded: rescued
same,BH4 levels,"[6]; sEND.1 treated with specific Gch1 siRNA, sepiapterin 1 μM",increased
same,endothelial cell growth and tubule formation,[7],rescued
COC(=O)[C@@H](N)CCCNC(=N)N[N+](=O)[O-] [L-NAME],ACh vasorelaxations in the presence of L-NAME,"[8]; Gch1^fl/flTie2cre uterine arteries, L-NAME 100 μM",did not significantly inhibit
same,vasoconstriction response to U46619 in the presence of L-NAME,"[8]; uterine arteries of pregnant Gch1^fl/flTie2cre mice, L-NAME 100 μM",unchanged
same,vasoconstriction response to U46619 in the presence of L-NAME,"[8]; uterine arteries of pregnant wild-type mice, L-NAME 100 μM",increased
same,activity of endothelial nitric oxide synthase (L-arginine to L-citrulline conversion),[9],inhibited
C[C@H](O)[C@H](O)[C@H]1CNc2nc(N)[nH]c(=O)c2N1 [sapropterin dihydrochloride],clinical benefit in PKU,[10],little or no benefit
Nc1nc2ncc(CNc3ccc(C(=O)N[C@@H](CCC(=O)O)C(=O)O)cc3)nc2c(=O)[nH]1 [folic acid],BH4 levels,"[6]; sEnd.1 cells, folic acid 10 μm, 16 h at 37° C., with or without MTX 1 μm (FIG. 28)",no effect
same,generation of reactive oxygen species (ROS),[11],increased
same,clinical benefit in pre-eclampsia,[12],no benefit
COc1ccc2c(c1)c(CC(=O)O)c(C)n2C(=O)c1ccc(Cl)cc1 [indomethacin],endothelium-dependent vasodilation to ACh in the presence of inhibitors,"[8]; uterine arteries, pregnant or non-pregnant wild-type and Gch1^fl/flTie2cre mice, indomethacin 10 μM, apamin 50 nM, charybdotoxin 100 nM",minimal effect
CN1c2c([nH]c(N)nc2=O)NC[C@@H]1CNc1ccc(C(=O)N[C@@H](CCC(=O)O)C(=O)O)cc1 [Arcofolin],BH4 levels,"[3]; HUVECs from pregnancies with high blood pressure, 5MTHF 10 μm, 16 h at 37° C. (FIG. 36)",increases
"CN1c2c(nc(N)[nH]c2=O)NC[C@@H]1CNc1ccc(C(=O)N[C@@H](CCC(=O)O)C(=O)O)cc1 [5-MTHF, 5-methyltetrahydrofolate]",systemic oxidation of BH4 to BH2,[1],prevented
same,time from initiation of treatment to reduction in blood pressure,[13],≤ 2 days
